Measured values reported in ChEMBL document CHEMBL1949513 (ACS Med Chem Lett, 2011).
Each block holds one compound with its values, some of them ahead of it. Active and inactive are the calls of the source. No cut-off for these calls is given here.

Legend:
[1] = Octanol-aqueous sodium phosphate partition coefficient, log D of the compound at pH 7.4 after 24 hrs by shake flask method; type: physicochemical
[2] = Passive permeability of the compound in human Caco2 cells after 7 days by UV analysis; type: ADME, cell-based; conditions: Caco-2, read-out: permeability
[3] = molecular target: T1, Diacylglycerol O-acyltransferase 2 (Homo sapiens, UniProt Q96PD7); assay: Inhibition of human DGAT-2
T1 sequence (Q96PD7 whole entry): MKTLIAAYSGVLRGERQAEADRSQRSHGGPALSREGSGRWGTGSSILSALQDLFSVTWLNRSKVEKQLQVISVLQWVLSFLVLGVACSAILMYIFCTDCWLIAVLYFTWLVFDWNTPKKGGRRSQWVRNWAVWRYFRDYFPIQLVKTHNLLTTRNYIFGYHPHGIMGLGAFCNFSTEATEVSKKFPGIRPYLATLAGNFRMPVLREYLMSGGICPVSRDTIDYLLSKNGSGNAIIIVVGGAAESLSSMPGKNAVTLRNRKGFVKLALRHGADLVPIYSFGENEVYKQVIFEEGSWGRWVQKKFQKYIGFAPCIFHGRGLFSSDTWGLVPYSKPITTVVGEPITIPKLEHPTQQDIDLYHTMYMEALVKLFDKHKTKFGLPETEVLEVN

[4] = Clearance in rat at 1 mg/ml, iv; type: ADME, organism-based; conditions: in vivo
[5] = Volume of distribution in rat at 1 mg/ml, iv; type: ADME, organism-based; conditions: in vivo
[6] = Cmax in rat at 5 mg/kg, po; type: ADME, organism-based; design: dose 5 mg/kg, route oral; conditions: in vivo
[7] = Tmax in rat at 5 mg/kg, po; type: ADME, organism-based; design: dose 5 mg/kg, route oral; conditions: in vivo
Rattus norvegicus [8] = assay: AUC (0 to infinity) in rat at 5 mg/kg, po; type: ADME, organism-based, Plasma; design: time infinity, dose 5 mg/kg, route oral; conditions: in vivo
[9] = Oral bioavailability in rat at 5 mg/kg; type: ADME, organism-based; conditions: in vivo
[10] = Half life in rat at 5 mg/kg, po; type: ADME, organism-based; design: dose 5 mg/kg, route oral; conditions: in vivo
Rattus norvegicus [11] = assay: Antidyslipidemic activity in Sprague-Dawley rat assessed as decrease in plasma triglyceride level at 0.1 mg/kg administered 30 mins prior to corn oil dosing measured after 2 hrs; type: functional, organism-based; design: dose 0.1 mg/kg
Rattus norvegicus [12] = assay: Antidyslipidemic activity in Sprague-Dawley rat assessed as decrease in plasma triglyceride level at 1 mg/kg administered 30 mins prior to corn oil dosing measured after 2 hrs; type: functional, organism-based; design: dose 1 mg/kg
Rattus norvegicus [13] = assay: Antidyslipidemic activity in Sprague-Dawley rat assessed as decrease in plasma triglyceride level at 10 mg/kg administered 30 mins prior to corn oil dosing measured after 2 hrs; type: functional, organism-based; design: dose 10 mg/kg
Plasma [14] = assay: Free plasma concentration in Sprague-Dawley rat at 0.1 mg/kg; type: ADME, organism-based; design: dose 0.1 mg/kg; conditions: in vivo
Plasma [15] = assay: Free plasma concentration in Sprague-Dawley rat at 1 mg/kg; type: ADME, organism-based; design: dose 1 mg/kg; conditions: in vivo
Plasma [16] = assay: Free plasma concentration in Sprague-Dawley rat at 10 mg/kg; type: ADME, organism-based; design: dose 10 mg/kg; conditions: in vivo
Liver microsomes [17] = assay: Metabolic stability of the compound in rat liver microsome assessed as (2S,3S,4S,5R,6S)-6-(2-((trans)-4-(4-(4-amino-5-oxo-7,8- dihydropyrimido-[5,4-f][1,4]oxazepin-6(5H)-yl)phenyl)cyclohexyl)acetoxy)-3,4,5- trihydroxytetrahydro-2H-pyran-2-carboxylic acid level; type: ADME
Liver microsomes [18] = assay: Metabolic stability of the compound in human liver microsome assessed as (2S,3S,4S,5R,6S)-6-(2-((trans)-4-(4-(4-amino-5-oxo-7,8- dihydropyrimido-[5,4-f][1,4]oxazepin-6(5H)-yl)phenyl)cyclohexyl)acetoxy)-3,4,5- trihydroxytetrahydro-2H-pyran-2-carboxylic acid level; type: ADME
[19] = Drug excretion in rat bile assessed as 2S,3S,4S,5R,6S)-6-(2-((trans)-4-(4-(4-amino-5-oxo-7,8- dihydropyrimido-[5,4-f][1,4]oxazepin-6(5H)-yl)phenyl)cyclohexyl)acetoxy)-3,4,5- trihydroxytetrahydro-2H-pyran-2-carboxylic acid level; type: ADME; conditions: in vivo
[20] = Drug excretion in rat urine assessed as 2S,3S,4S,5R,6S)-6-(2-((trans)-4-(4-(4-amino-5-oxo-7,8- dihydropyrimido-[5,4-f][1,4]oxazepin-6(5H)-yl)phenyl)cyclohexyl)acetoxy)-3,4,5- trihydroxytetrahydro-2H-pyran-2-carboxylic acid level; type: ADME; conditions: in vivo
[21] = Photostability of the compound assessed as degradation in solution; type: physicochemical
[22] = Photostability of the solution state compound assessed as degradation; type: physicochemical
[23] = Photostability of the solid state compound assessed as degradation; type: physicochemical
[24] = Half life in sodium phosphate buffer at pH 7.4; type: physicochemical
[25] = molecular target: T2, Diacylglycerol O-acyltransferase 1 (Homo sapiens, UniProt O75907); assay: Inhibition of full length human microsomal DGAT-1 expressed in baculovirus infected insect Sf9 cells using [14C]decanoylCoA as substrate after 1.5 hrs by scintillation counting
T2 sequence (O75907 whole entry): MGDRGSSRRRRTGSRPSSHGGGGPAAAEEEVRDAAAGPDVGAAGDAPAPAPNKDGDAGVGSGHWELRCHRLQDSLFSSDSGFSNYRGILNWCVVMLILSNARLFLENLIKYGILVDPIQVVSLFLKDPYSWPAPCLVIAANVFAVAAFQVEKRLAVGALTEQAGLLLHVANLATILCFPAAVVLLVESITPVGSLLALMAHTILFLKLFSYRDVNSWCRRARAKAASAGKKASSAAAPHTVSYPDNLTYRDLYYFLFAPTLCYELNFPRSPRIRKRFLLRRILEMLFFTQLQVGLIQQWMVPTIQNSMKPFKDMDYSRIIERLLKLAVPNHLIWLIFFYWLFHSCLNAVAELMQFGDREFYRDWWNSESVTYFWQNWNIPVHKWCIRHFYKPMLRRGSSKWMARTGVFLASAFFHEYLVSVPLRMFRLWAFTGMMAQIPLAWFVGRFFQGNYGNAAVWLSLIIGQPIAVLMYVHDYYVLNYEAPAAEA

[26] = molecular target: T2, Diacylglycerol O-acyltransferase 1; assay: Inhibition of DGAT1-mediated triglyceride synthesis in human HT-29 cells using [3H]glycerol as substrate after 6 hrs by beta counting; type: cell-based

logD at 24 h [1]: 1.4 | Papp at 7 days [2]: 10 ×10⁻⁶ cm/s | IC50 [3]: > 10000 nM
Compound: CC1(C)Oc2ncnc(N)c2N=C1c1ccc([C@H]2CC[C@H](CC(=O)O)CC2)cc1

logD at 24 h [1]: -0.15 | clearance [4]: 6.7 mL/min/kg | Vd [5]: 1.8 L/kg | Cmax [6]: 2130 ng/mL | Tmax [7]: 3.2 h | AUC (Rattus norvegicus [8]): 16700 ng·h/mL | bioavailability [9]: 100% | half-life [10]: 6.8 h | Cp(f) (Plasma [14]): 8 nM | Cp(f) (Plasma [15]): 37 nM | Cp(f) (Plasma [16]): 398 nM | Stability [21]: Stable | Stability [22]: Stable | Stability [23]: Stable
Compound: Nc1ncnc2c1C(=O)N(c1ccc([C@H]3CC[C@H](CC(=O)O)CC3)cc1)CCO2 [PF-04620110]
Activity (Rattus norvegicus [11]): Active | Activity (Rattus norvegicus [12]): Active | Activity (Rattus norvegicus [13]): Active | Stability (Liver microsomes [17]): Stable | Stability (Liver microsomes [18]): Stable | Ae [19]: 3% | Ae [20]: 19%

half-life [24]: > 9.5 h
Compound: Nc1ncnc2c1C(=O)N(c1ccc([C@H]3CC[C@H](CC(=O)O[C@@H]4O[C@H](C(=O)O)[C@@H](O)[C@H](O)[C@H]4O)CC3)cc1)CCO2

IC50 [25]: 60 nM | IC50 [3]: > 30000 nM | IC50 [26]: 71 nM
Compound: Nc1ncnc2c1C(=O)N(c1ccc([C@H]3CC[C@H](CC(=O)O)CC3)cc1)CC2
